Assay results reported in PubChem BioAssay (NCI).
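Grown in 96-well plates, cells were treated for 48 hours with each compound at five concentrations. Insufficient inhibition: endpoint recorded as highest concentration tested. GI50 marks 50% less growth. TGI marks complete inhibition of growth.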

Legend:
Experiment in all cases: NCI anticancer screen, dose series, 48 h
[1] = system: SN12C renal
[2] = system: NCI-H226 lung
[3] = system: ACHN renal
[4] = system: K-562 leukemia
[5] = system: SK-MEL-5 melanoma
[6] = system: CAKI-1 renal
[7] = system: SF-268 CNS
[8] = system: RPMI-8226 leukemia
[9] = system: MCF7 breast
[10] = system: UACC-257 melanoma
[11] = system: SR leukemia

Row | SMILES | TGI [1] | TGI [2] | TGI [3] | TGI [4] | TGI [5] | TGI [6] | TGI [7] | TGI [8] | TGI [9] | TGI [10] | GI50 [1] | GI50 [3] | GI50 [4] | GI50 [6] | TGI [11]
1 | Oc1ccc2c(c1)OCC(O)(c1ccccc1O)C2 (stereo unspecified) | > 100 µM | > 100 µM | > 100 µM | > 100 µM | > 100 µM | > 100 µM | > 100 µM | > 100 µM | > 100 µM | > 100 µM | – | – | – | – | –
2 | O=c1ccc2ccccc2o1 | > 100 µM | > 100 µM | > 100 µM | > 100 µM | – | – | > 100 µM | > 100 µM | – | > 100 µM | – | – | – | – | –
3 | CN(C)c1ccc(/C=C/c2sc3ccc4ccccc4c3[n+]2C)cc1 | 3.43 µM | – | > 100 µM | > 100 µM | – | 0.627 µM | – | – | – | – | 0.359 µM | 0.537 µM | 0.199 µM | 0.211 µM | –
4 | Cn1c(N2CCCC2)c(C=O)c(=O)n(C)c1=O | > 100 µM | > 100 µM | > 100 µM | > 100 µM | > 100 µM | > 100 µM | > 100 µM | > 100 µM | > 100 µM | > 100 µM | – | – | – | – | –
5 | N[C@@H]1c2c(Br)sc(Br)c2[C@H](O)[C@@H]1O | > 100 µM | > 100 µM | > 100 µM | > 100 µM | > 100 µM | > 100 µM | > 100 µM | – | > 100 µM | > 100 µM | – | – | – | – | –
6 | OC1C(O)C(O)C(O)C(O)C1O (stereo unspecified) | > 1000 µM | > 1000 µM | > 1000 µM | > 1000 µM | > 1000 µM | – | > 1000 µM | > 1000 µM | > 1000 µM | > 1000 µM | – | – | – | – | > 1000 µM
7 | CN1N=C2c3ccccc3CC[C@H]2C1c1ccccc1 (stereo partly specified) | > 100 µM | > 100 µM | > 100 µM | > 100 µM | – | – | > 100 µM | > 100 µM | – | 70.3 µM | – | – | – | – | > 100 µM
8 | Cn1c(C(C#N)c2cc(Cl)ncn2)nc2ccccc21 (stereo unspecified) | > 100 µM | > 100 µM | > 100 µM | – | > 100 µM | > 100 µM | > 100 µM | > 100 µM | – | > 100 µM | – | – | – | – | –
9 | CCSc1nc2sc(C)c(C)c2c(=O)n1-c1ccc(C(=O)O)cc1 | > 100 µM | 86.2 µM | > 100 µM | > 100 µM | > 100 µM | > 100 µM | > 100 µM | > 100 µM | – | > 100 µM | – | – | – | – | > 100 µM
10 | N=c1c2c3n(c4c(=O)n(-c5ccccc5)c(=S)n(c(=O)n1-c1ccccc1)c24)CCCCC3 | > 100 µM | > 100 µM | > 100 µM | – | > 100 µM | > 100 µM | > 100 µM | > 100 µM | > 100 µM | > 100 µM | – | – | – | – | –
11 | OCCCSc1ccccc1SCCCO | > 100 µM | – | – | > 100 µM | > 100 µM | – | > 100 µM | – | > 100 µM | > 100 µM | – | – | – | – | > 100 µM
12 | C#CC(O)/C=C/CCCCCCC#CC/C=C\CC#CCCCCCC/C=C/C(O)C#C (stereo unspecified) | 4.02 µM | 14 µM | 13.7 µM | 9.67 µM | 3.14 µM | 5.98 µM | 10.8 µM | – | 25.9 µM | 8.57 µM | – | – | – | – | 18 µM
